Results reported in PubChem BioAssay AID248 (DTP/NCI, 2004).
Several values for one entry are separate records, joined by “and”; a condition that tells them apart may be missing. Equal values may be shown once. Toxic doses and inconclusive results are not listed. Rule as the data show it: active = T/C of 150% or more; inactive = T/C below 125%.

System: L1210 leukemia ip in BDF1 mice, survival T/C
Experiment: NCI In Vivo Anticancer Drug Screen. Data for tumor model L1210 Leukemia (intraperitoneal) in B6D2F1 (BDF1) mice
Conditions: higher = longer survival
Summary of the method: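 Read-out is survival time, reported as the treated-group measurement over the vehicle-control measurement.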

[1] = endpoint: mean survival time, dose: 100.0 mg/kg/injection, schedule: Q01DX009 (ip), vehicle: saline
[2] = endpoint: mean survival time, dose: 100.0 mg/kg/injection, schedule: Q04DX003 (ip), vehicle: saline
[3] = endpoint: mean survival time, dose: 200.0 mg/kg/injection, schedule: Q01DX009 (ip), vehicle: saline
[4] = endpoint: mean survival time, dose: 200.0 mg/kg/injection, schedule: Q04DX003 (ip), vehicle: saline
[5] = endpoint: mean survival time, dose: 400.0 mg/kg/injection, schedule: Q01DX009 (ip), vehicle: saline
[6] = endpoint: mean survival time, dose: 400.0 mg/kg/injection, schedule: Q04DX003 (ip), vehicle: saline
[7] = endpoint: mean survival time, dose: 100.0 mg/kg/injection, schedule: Q01DX001 (ip), vehicle: saline
[8] = endpoint: mean survival time, dose: 200.0 mg/kg/injection, schedule: Q01DX001 (ip), vehicle: saline
[9] = endpoint: mean survival time, dose: 100.0 mg/kg/injection, schedule: Q01DX009 (ip), vehicle: Klucel (hydroxypropylcellulose) (HPC)
[10] = endpoint: mean survival time, dose: 200.0 mg/kg/injection, schedule: Q01DX009 (ip), vehicle: Klucel (hydroxypropylcellulose) (HPC)
[11] = endpoint: mean survival time, dose: 400.0 mg/kg/injection, schedule: Q01DX001 (ip), vehicle: saline
[12] = endpoint: mean survival time, dose: 400.0 mg/kg/injection, schedule: Q01DX009 (ip), vehicle: Klucel (hydroxypropylcellulose) (HPC)
[13] = endpoint: mean survival time, dose: 100.0 mg/kg/injection, schedule: Q01DX009 (ip), vehicle: saline with Tween-80
[14] = endpoint: mean survival time, dose: 100.0 mg/kg/injection, schedule: Q04DX003 (ip), vehicle: saline with Tween-80
[15] = endpoint: mean survival time, dose: 200.0 mg/kg/injection, schedule: Q04DX003 (ip), vehicle: saline with Tween-80
[16] = endpoint: mean survival time, dose: 400.0 mg/kg/injection, schedule: Q04DX003 (ip), vehicle: saline with Tween-80

Measured: T/C

CC1NC1C (centres undefined)
inactive: endpoint: mean survival time, dose: 45.0 mg/kg/injection, schedule: Q04DX003 (ip), vehicle: saline 102 % of control | endpoint: mean survival time, dose: 90.0 mg/kg/injection, schedule: Q04DX003 (ip), vehicle: saline 98 % of control | [1] 103 % of control | [2] 108 % of control | endpoint: mean survival time, dose: 180.0 mg/kg/injection, schedule: Q04DX003 (ip), vehicle: saline 107 % of control | [3] 108 % of control | [4] 114 % of control | [5] 103 % of control | [6] 119 % of control

NCCSSSSCCN
inactive: [7] 96 % of control | [8] 105 % of control

CC(=O)/C=C/c1ccc2c(c1)OCO2
inactive: endpoint: mean survival time, dose: 25.0 mg/kg/injection, schedule: Q01DX009 (ip), vehicle: saline 105 % of control | endpoint: mean survival time, dose: 50.0 mg/kg/injection, schedule: Q01DX009 (ip), vehicle: saline 96 % of control | [1] 110 % of control | [3] 94 % of control | [5] 102 % of control

CON(C)c1nc(Cl)nc(Cl)n1
inactive: endpoint: mean survival time, dose: 50.0 mg/kg/injection, schedule: Q01DX001 (ip), vehicle: saline 105 % of control | endpoint: mean survival time, dose: 100.0 mg/kg/injection, schedule: Q01DX001 (ip), vehicle: Klucel (hydroxypropylcellulose) (HPC) 103 % of control | [7] 100 % of control | [9] 95 % of control | endpoint: mean survival time, dose: 200.0 mg/kg/injection, schedule: Q01DX001 (ip), vehicle: Klucel (hydroxypropylcellulose) (HPC) 94 % of control | [8] 94 % of control | [10] 98 % of control | endpoint: mean survival time, dose: 400.0 mg/kg/injection, schedule: Q01DX001 (ip), vehicle: Klucel (hydroxypropylcellulose) (HPC) 98 % of control | [11] 102 % of control | [12] 96 % of control

CCOC(=O)C(=Cc1c[nH]c2ccc(Br)cc12)C(=O)OCC
inactive: [13] 98 % of control | [14] 89 % of control | endpoint: mean survival time, dose: 200.0 mg/kg/injection, schedule: Q01DX009 (ip), vehicle: saline with Tween-80 104 % of control | [15] 96 % of control | endpoint: mean survival time, dose: 400.0 mg/kg/injection, schedule: Q01DX009 (ip), vehicle: saline with Tween-80 101 % of control | [16] 91 % of control

O=Cc1ccc(O)cn1
inactive: [2] 92 % of control | [4] 87 % of control | [6] 92 % of control

CN(C)C1C(=O)C(C(N)=O)=C(O)C2(O)C(=O)C3=C(O)c4c(O)cccc4C(C)(O)C3CC12 (centres undefined)
inactive: [7] 94 % of control | [8] 96 % of control | [11] 100 % of control | endpoint: median survival time, dose: 20.0 mg/kg/injection, schedule: Q04DX003 (ip), vehicle: water 103 % of control and 105 % of control | endpoint: median survival time, dose: 40.0 mg/kg/injection, schedule: Q04DX003 (ip), vehicle: water 97 % of control and 100 % of control | endpoint: median survival time, dose: 80.0 mg/kg/injection, schedule: Q04DX003 (ip), vehicle: water 97 % of control and 100 % of control | endpoint: median survival time, dose: 160.0 mg/kg/injection, schedule: Q04DX003 (ip), vehicle: water 105 % of control and 111 % of control

O=C(Nc1cc(Cl)ccc1O)Nc1cc(C(F)(F)F)ccc1Cl
inactive: endpoint: mean survival time, dose: 100.0 mg/kg/injection, schedule: Q01DX001 (ip), vehicle: carboxymethylcellulose (CMC) 101 % of control | endpoint: mean survival time, dose: 100.0 mg/kg/injection, schedule: Q01DX009 (ip), vehicle: carboxymethylcellulose (CMC) 95 % of control and 103 % of control | endpoint: mean survival time, dose: 100.0 mg/kg/injection, schedule: Q04DX002 (ip), vehicle: carboxymethylcellulose (CMC) 97 % of control and 104 % of control | endpoint: mean survival time, dose: 100.0 mg/kg/injection, schedule: Q04DX003 (ip), vehicle: carboxymethylcellulose (CMC) 97 % of control | endpoint: mean survival time, dose: 200.0 mg/kg/injection, schedule: Q01DX001 (ip), vehicle: carboxymethylcellulose (CMC) 97 % of control | endpoint: mean survival time, dose: 200.0 mg/kg/injection, schedule: Q01DX009 (ip), vehicle: carboxymethylcellulose (CMC) 97 % of control and 103 % of control | endpoint: mean survival time, dose: 200.0 mg/kg/injection, schedule: Q04DX002 (ip), vehicle: carboxymethylcellulose (CMC) 97 % of control and 104 % of control | endpoint: mean survival time, dose: 200.0 mg/kg/injection, schedule: Q04DX003 (ip), vehicle: carboxymethylcellulose (CMC) 97 % of control | endpoint: mean survival time, dose: 400.0 mg/kg/injection, schedule: Q01DX001 (ip), vehicle: carboxymethylcellulose (CMC) 98 % of control | endpoint: mean survival time, dose: 400.0 mg/kg/injection, schedule: Q01DX009 (ip), vehicle: carboxymethylcellulose (CMC) 92 % of control and 97 % of control | endpoint: mean survival time, dose: 400.0 mg/kg/injection, schedule: Q04DX002 (ip), vehicle: carboxymethylcellulose (CMC) 98 % of control and 90 % of control | endpoint: mean survival time, dose: 400.0 mg/kg/injection, schedule: Q04DX003 (ip), vehicle: carboxymethylcellulose (CMC) 100 % of control

C1=CN2CCCN3C=CC=c4ccc(c2c43)=C1
inactive: endpoint: mean survival time, dose: 7.5 mg/kg/injection, schedule: Q01DX009 (ip), vehicle: saline 100 % of control | endpoint: mean survival time, dose: 15.0 mg/kg/injection, schedule: Q01DX009 (ip), vehicle: saline 98 % of control

COc1ccc(OC)c(NC(=O)Nc2ccc(C(=O)O)c(O)c2)c1
inactive: [9] 91 % of control | [10] 103 % of control | [12] 97 % of control

NC(N)=N/N=C(\C(=N\N=C(N)N)c1ccccc1)c1ccccc1
inactive: endpoint: mean survival time, dose: 60.0 mg/kg/injection, schedule: Q01DX Z (oral), vehicle: methylcellulose (MC) 98 % of control | endpoint: mean survival time, dose: 120.0 mg/kg/injection, schedule: Q01DX Z (oral), vehicle: methylcellulose (MC) 96 % of control | endpoint: mean survival time, dose: 240.0 mg/kg/injection, schedule: Q01DX Z (oral), vehicle: methylcellulose (MC) 94 % of control | endpoint: mean survival time, dose: 480.0 mg/kg/injection, schedule: Q01DX Z (oral), vehicle: methylcellulose (MC) 91 % of control

CCCC(CC)C(=O)OCCCSCCCOC(=O)C(CC)CCC (centres undefined)
inactive: endpoint: mean survival time, dose: 222.0 mg/kg/injection, schedule: Q01DX Z (ip), vehicle: methylcellulose (MC) 92 % of control | endpoint: mean survival time, dose: 333.0 mg/kg/injection, schedule: Q01DX Z (ip), vehicle: methylcellulose (MC) 94 % of control | endpoint: mean survival time, dose: 500.0 mg/kg/injection, schedule: Q01DX Z (ip), vehicle: methylcellulose (MC) 87 % of control

Oc1ccc(O)c(CCCc2cc(O)ccc2O)c1
inactive: [14] 98 % of control | [15] 98 % of control | [16] 90 % of control

OCC1OC(n2ccc3c([Se]Cc4ccccc4)ncnc32)C(O)C1O (centres undefined)
inactive: endpoint: mean survival time, dose: 0.78 mg/kg/injection, schedule: Q01DX009 (ip), vehicle: saline 101 % of control | endpoint: mean survival time, dose: 1.56 mg/kg/injection, schedule: Q01DX009 (ip), vehicle: saline 105 % of control | endpoint: mean survival time, dose: 3.12 mg/kg/injection, schedule: Q01DX009 (ip), vehicle: saline 109 % of control | endpoint: mean survival time, dose: 6.25 mg/kg/injection, schedule: Q01DX009 (ip), vehicle: saline 86 % of control | endpoint: mean survival time, dose: 12.5 mg/kg/injection, schedule: Q01DX005 (ip), vehicle: saline 100 % of control | endpoint: mean survival time, dose: 25.0 mg/kg/injection, schedule: Q01DX005 (ip), vehicle: saline 101 % of control

CCCN(CCC)CC(C)(C)CO
inactive: endpoint: mean survival time, dose: 50.0 mg/kg/injection, schedule: Q01DX009 (ip), vehicle: saline with Tween-80 96 % of control | [13] 101 % of control

N#Cc1ccc(OCc2nc(N)nc(N)c2-c2ccc(Cl)cc2)cc1
inactive: [14] 104 % of control | [15] 100 % of control
